Where a name gives a salt, the structure may show the parent alone.
What was measured:
mu opioid receptors = biological target: mu opioid receptors; parameters: key to Ke, M: No agonist antagonism observed; settings: GPI, cited from earlier work; for Kb: read-out: Ke, M (morphine), agonist morphine, antagonist 100 or 200 nM, 15 min
kappa opioid receptors = biological target: kappa opioid receptors; parameters: key to Ke, EK: No agonist antagonism observed; settings: GPI, cited from earlier work; for Kb: agonist ethylketazocine, antagonist 100 or 200 nM, 15 min, read-out: Ke, EK
delta opioid receptors [1] = biological target: T1, delta opioid receptors (Mus musculus, UniProt P32300); parameters: key: No agonist antagonism observed; settings: MVD; compound 7 tested at 5 nM or less; cited from earlier work
[2] = system: mouse vas deferens (MVD) and guinea pig ileum (GPI) preparations; settings: cited from earlier work
delta opioid receptors [3] = biological target: T1, delta opioid receptors; assay: antagonism of DADLE in the mouse vas deferens (MVD) preparation; settings: compared with 1 or its congeners
Description: Mouse Vas Deferens (MVD). […] Both vasa deferentia were dissected out of mice and mounted singly through two platinum ring electrodes in a 10 ml organ bath. The bath contained Krebs bicarbonate solution that was continuously bubbled with 95% O2 and 5% CO2. The organ bath was maintained at 37° C. The tissue was attached to an isometric transducer and stimulated transmurally with rectangular pulses (0.1 Mz, 1 ms duration, supramaximal voltage). Drugs were added cumulatively to the bath in 10- to 50-μL amounts and washed out after noting their maximum effect.
The compounds were tested in vitro on the mouse vas deferens (MVD) and guinea pig ileum (GPI) preparations. […] The IC50 value was divided by the control IC50 value in the same tissue, and this IC50 ratio (DR) was employed to calculate the Ke value using the equation Ke=[antagonist]/(DR-1).

δ opioid receptor = biological target: T2, δ opioid receptor (Mus musculus, UniProt P32300); assay: antagonism of DADLE on MVD preparations (Example 7); format: cell-based; settings: for IC50 ratio (DADLE): MVD, 100 nM of each compound, NTI = 20 nM, 15 min
T2 construct: Both vasa deferentia were dissected out of mice; from tissue; host or cells: mouse vas deferens (isolated, electrically stimulated)
Description: 2. Mouse Vas Deferens (MVD). […] The organ bath was maintained at 37° C.
Concentration-response curves were obtained in the absence (control) and the presence of the antagonist are expressed as IC50 values. […] Therefore, a high IC50 ratio represents a correspondingly high degree of antagonism at a particular receptor. […] Therefore, a low Ke represents a correspondingly high degree of binding at a particular receptor.

μ opioid receptor = μ opioid receptor (Cavia porcellus, UniProt A0ACM8Q262); assay: antagonism of morphine in the GPI (Example 7); format: cell-based, guinea pig; settings: morphine as agonist, read-out: Ke, μ (Table VII)
Description: 1. Guinea Pig Ileal Longitudinal Muscle (GPI). Ilea from guinea pigs were taken approximately 10 cm from the ileocaecal junction, and a strip of longitudinal muscle with the myenteric plexus attached was prepared by method of Rang et al., Brit. J. Pharmacol., 22, 356 (1964), the disclosure of which is incorporated by reference herein. A 1 cm portion of this strip was then mounted between two platinum electrodes placed in a 10 ml organ bath and connected to an isometric transducer. Contractions were recorded on a polygraph. […] The organ bath was maintained at 36°-37° C. The longitudinal muscle strip was allowed to equilibrate with continuous stimulation for a minimum of 90 min.

guinea pig ileum (GPI) = settings: standard result; cited from earlier work
[4] = compound 7 tested at 5 nM or less

T2 sequence (P32300 whole entry): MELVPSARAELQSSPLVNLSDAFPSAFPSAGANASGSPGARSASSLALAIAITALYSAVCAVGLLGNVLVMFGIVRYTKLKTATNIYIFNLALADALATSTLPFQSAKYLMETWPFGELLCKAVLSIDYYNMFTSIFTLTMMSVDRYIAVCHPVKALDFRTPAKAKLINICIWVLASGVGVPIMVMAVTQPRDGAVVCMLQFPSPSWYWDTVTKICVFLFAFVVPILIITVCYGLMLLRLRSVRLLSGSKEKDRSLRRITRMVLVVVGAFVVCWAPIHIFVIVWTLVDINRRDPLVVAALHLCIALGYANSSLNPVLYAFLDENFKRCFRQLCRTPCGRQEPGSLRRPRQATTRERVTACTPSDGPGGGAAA
T1 sequence (P32300 whole entry): as above
μ opioid receptor, sequence (A0ACM8Q262 1-400): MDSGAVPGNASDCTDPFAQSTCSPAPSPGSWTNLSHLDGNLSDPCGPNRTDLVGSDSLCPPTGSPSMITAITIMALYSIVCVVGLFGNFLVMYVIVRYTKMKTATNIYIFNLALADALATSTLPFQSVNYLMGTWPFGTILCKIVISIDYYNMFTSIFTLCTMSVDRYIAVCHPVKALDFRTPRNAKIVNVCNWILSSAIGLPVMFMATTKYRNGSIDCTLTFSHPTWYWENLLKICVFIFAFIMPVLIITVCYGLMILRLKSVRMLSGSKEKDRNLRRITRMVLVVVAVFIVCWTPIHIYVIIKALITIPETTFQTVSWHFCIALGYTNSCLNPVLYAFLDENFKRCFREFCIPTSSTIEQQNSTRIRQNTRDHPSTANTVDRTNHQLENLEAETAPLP

## Cn1c2c(c3ccccc31)C[C@@]1(O)[C@H]3Cc4ccc(O)c5c4[C@@]1(CCN3CC1CC1)[C@H]2O5 [Compound 2]
Mu opioid receptors
  Kb: 12.5 nM
Kappa opioid receptors
  Kb: 22.2 nM

## Oc1ccc2c3c1O[C@H]1c4[nH]c5ccc(F)cc5c4C[C@@]4(O)[C@@H](C2)N(CC2CC2)CC[C@]314 [Compound 3]
Mu opioid receptors
  Kb: 61.7 nM
Kappa opioid receptors
  Kb: 46.2 nM

## COc1ccc2[nH]c3c(c2c1)C[C@@]1(O)[C@H]2Cc4ccc(O)c5c4[C@@]1(CCN2CC1CC1)[C@H]3O5 [Compound 4]
Mu opioid receptors
  Kb: 63 nM
Kappa opioid receptors
  Kb: 12.6 nM

## Cc1ccc2[nH]c3c(c2c1)C[C@@]1(O)[C@H]2Cc4ccc(O)c5c4[C@@]1(CCN2CC1CC1)[C@H]3O5 [Compound 5]
Mu opioid receptors
  Kb: > 160 nM
Kappa opioid receptors
  Kb: > 250 nM

## O=[N+]([O-])c1ccc2[nH]c3c(c2c1)C[C@@]1(O)[C@H]2Cc4ccc(O)c5c4[C@@]1(CCN2CC1CC1)[C@H]3O5 [Compound 6]
Mu opioid receptors
  Kb: 92 nM
Kappa opioid receptors
  Kb: ≥ 200 nM

## CN1CC[C@]23c4c5ccc(O)c4O[C@H]2c2[nH]c4ccccc4c2C[C@@]3(O)[C@H]1C5 [Compound 7]
Delta opioid receptors [1]
  Ke, DADLE: e
Mu opioid receptors; [4]
  Ke, M: e
Kappa opioid receptors; [4]
  Ke, EK: e
[2]; at 5 nM
  antagonist activity of compound 7: inactive
[2]; in words
  agonist activity: partial agonist activity

## Oc1ccc2c3c1O[C@H]1c4oc5ccccc5c4C[C@@]4(O)[C@@H](C2)N(CC2CC2)CC[C@]314 [Compound 8, (17-cyclopropylmethyl)-6,7-dehydro-3,14β-dihydroxy-4,5α-epoxy-6,7-2',3'-benzo[b]furanomorphinan]
Mu opioid receptors
  Kb: 30.8 nM
Kappa opioid receptors
  Kb: 50.8 nM
Delta opioid receptors [3]
  delta antagonist potency / selectivity in words: less potent and less selective than 1 as a delta antagonist, nevertheless retains substantial delta antagonist activity

## Oc1ccc2[nH]c3c(c2c1)C[C@@]1(O)[C@H]2Cc4ccc(O)c5c4[C@@]1(CCN2CC1CC1)[C@H]3O5 [Compound 9]
Mu opioid receptors
  Kb: 27.2 nM
Kappa opioid receptors
  Kb: 68.5 nM

## Oc1ccc2c3c1O[C@H]1c4[nH]c5cccc(F)c5c4C[C@@]4(O)[C@@H](C2)N(CC2CC2)CC[C@]314 [Compound 10]
Mu opioid receptors
  Kb: > 125 nM
Kappa opioid receptors
  Kb: > 170 nM

## Oc1ccc2c3c1O[C@H]1c4[nH]c5c(F)cccc5c4C[C@@]4(O)[C@@H](C2)N(CC2CC2)CC[C@]314 [Compound 11]
Mu opioid receptors
  Kb: 5.3 nM
Kappa opioid receptors
  Kb: > 330 nM

## Cc1cccc2c3c([nH]c12)[C@@H]1Oc2c(O)ccc4c2[C@@]12CCN(CC1CC1)[C@H](C4)[C@]2(O)C3 [Compound 13]
Mu opioid receptors
  Kb: 19.1 nM
Kappa opioid receptors
  Kb: > 330 nM

## COc1cccc2c3c([nH]c12)[C@@H]1Oc2c(O)ccc4c2[C@@]12CCN(CC1CC1)[C@H](C4)[C@]2(O)C3 [Compound 14]
Mu opioid receptors
  Kb: 35 nM

## Oc1ccc2c3c1O[C@H]1c4nc5ccccc5nc4C[C@@]4(O)[C@@H](C2)N(CC2CC2)CC[C@]314 [Compound 16]
Mu opioid receptors
  Kb: 6.1 nM
Kappa opioid receptors
  Kb: 13.4 nM
Delta opioid receptors [3]
  delta antagonist potency / selectivity in words: A similar relationship was observed

## Oc1ccc2c3c1O[C@H]1c4nc5ccccc5cc4C[C@@]4(O)[C@@H](C2)N(CC2CC2)CC[C@]314 [Compound 17]
Mu opioid receptors
  Kb: 11.3 nM
Kappa opioid receptors
  Kb: 16.3 nM
Delta opioid receptors [3]
  delta antagonist potency / selectivity in words: A similar relationship was observed

## O=C1/C(=C/c2ccc([N+](=O)[O-])cc2)C[C@@]2(O)[C@H]3Cc4ccc(O)c5c4[C@@]2(CCN3CC2CC2)[C@H]1O5 [IIa, E-7-(4-Nitrobenzylideno)naltrexone hydrochloride]
δ opioid receptor
  Kb: 111 nM
  IC50 ratio (DADLE): 1.90

## O=C1/C(=C/c2cccc([N+](=O)[O-])c2)C[C@@]2(O)[C@H]3Cc4ccc(O)c5c4[C@@]2(CCN3CC2CC2)[C@H]1O5 [IIb]
δ opioid receptor
  Kb: 20 nM
  IC50 ratio (DADLE): 5.97

## COc1ccc(/C=C2\C[C@@]3(O)[C@H]4Cc5ccc(O)c6c5[C@@]3(CCN4CC3CC3)[C@@H](O6)C2=O)cc1 [IIc]
δ opioid receptor
  Kb: 22 nM
  IC50 ratio (DADLE): 5.52

## COc1ccccc1/C=C1\C[C@@]2(O)[C@H]3Cc4ccc(O)c5c4[C@@]2(CCN3CC2CC2)[C@@H](O5)C1=O [IIe]
δ opioid receptor
  Kb: 0.84 nM
  IC50 ratio (DADLE): 120

## O=C1/C(=C/c2ccc(F)cc2)C[C@@]2(O)[C@H]3Cc4ccc(O)c5c4[C@@]2(CCN3CC2CC2)[C@H]1O5 [IIg]
δ opioid receptor
  Kb: 77 nM
  IC50 ratio (DADLE): 2.29

## O=C1/C(=C/c2cccc(F)c2)C[C@@]2(O)[C@H]3Cc4ccc(O)c5c4[C@@]2(CCN3CC2CC2)[C@H]1O5 [IIh]
δ opioid receptor
  Kb: 14 nM
  IC50 ratio (DADLE): 7.87

## O=C1/C(=C/c2ccccc2F)C[C@@]2(O)[C@H]3Cc4ccc(O)c5c4[C@@]2(CCN3CC2CC2)[C@H]1O5 [IIi]
δ opioid receptor
  Kb: 20 nM
  IC50 ratio (DADLE): 6.01

## O=C1/C(=C/c2ccccc2Cl)C[C@@]2(O)[C@H]3Cc4ccc(O)c5c4[C@@]2(CCN3CC2CC2)[C@H]1O5 [IIj]
δ opioid receptor
  Kb: 0.76 nM
  IC50 ratio (DADLE): 130

## O=C1/C(=C/c2cccc3ccccc23)C[C@@]2(O)[C@H]3Cc4ccc(O)c5c4[C@@]2(CCN3CC2CC2)[C@H]1O5 [IIl]
δ opioid receptor
  Kb: 8.5 nM
  IC50 ratio (DADLE): 12.7

## O=C1/C(=C/c2ccc3ccccc3c2)C[C@@]2(O)[C@H]3Cc4ccc(O)c5c4[C@@]2(CCN3CC2CC2)[C@H]1O5 [IIm]
δ opioid receptor
  Kb: 9.4 nM
  IC50 ratio (DADLE): 11.6

## O=C1CC[C@@]2(O)[C@H]3Cc4ccc(O)c5c4[C@@]2(CCN3CC2CC2)[C@H]1O5 [Naltrexone, naltrexone, reference compound]
μ opioid receptor
  Kb: 1 nM
Guinea pig ileum (GPI)
  block of morphine's effects: block morphine's effects
